The target of the test is T1, nsp10–14 fusion protein (Severe acute respiratory syndrome coronavirus 2, UniProt P0DTD1).
T1 construct: gene rep; with Non-structural protein 10
As to the kind of experiment: biochemical.

Here are results for 1 molecule from publication PMC8286829, “Identifying SARS-CoV-2 antiviral compounds by screening for small molecule inhibitors of nsp14/nsp10 exoribonuclease” (Biochemical Journal, 2021).

The structures appear in SMILES notation.

On to `O=C1C=C2C(=CCOC2O)O1` (stereo not shown) [patulin], for which the IC50 was found to be 1800 nM. In other words, the single-digit micromolar range.

A word on the IC50: it is the concentration needed to halve the response being measured.
